Assay results published in article PMC5218480 (PLoS ONE, 2017).

Tested on: MV-4-11 cells
Assay: Gene expression microarray analysis (Affymetrix PrimeView) and GSEA
Type: cell-based, human
Set-up: RFU PODN (11730768_x_at) / Fold change /veh PODN (11730768_x_at) / RFU LINC00158 (11744669_a_at) / Fold change /veh LINC00158 (11744669_a_at) / RFU DUSP10 (11751237_a_at) / Fold change /veh DUSP10 (11751237_a_at) / RFU ID3 (11757404_x_at) / Fold change /veh ID3 (11757404_x_at) / RFU PLEKHG5 (11737974_s_at) / Fold change /veh PLEKHG5 (11737974_s_at) / RFU LRRC4B (11730491_at) / Fold change /veh LRRC4B (11730491_at) / RFU GIMAP4 (11747438_a_at) / Fold change /veh GIMAP4 (11747438_a_at) / RFU KRT8 (11758183_x_at) / Fold change /veh KRT8 (11758183_x_at) / RFU CNN1 (11734310_a_at) / Fold change /veh CNN1 (11734310_a_at) / RFU VPS37D (11726825_at) / Fold change /veh VPS37D (11726825_at) / RFU C10orf10 (11716522_x_at) / Fold change /veh C10orf10 (11716522_x_at) / RFU KIR2DL2 /// KIR2DL4 /// KIR2DL5A /// KIR2DL5B /// KIR2DS1 /// KIR2DS2 /// KIR2DS3 /// KIR2DS4 /// KIR3DL3 /// KIR3DL3 /// KIR3DS1 (11738374_at) / Fold change /veh KIR2DL2 /// KIR2DL4 /// KIR2DL5A /// KIR2DL5B /// KIR2DS1 /// KIR2DS2 /// KIR2DS3 /// KIR2DS4 /// KIR3DL3 /// KIR3DL3 /// KIR3DS1 (11738374_at) / RFU C1QL1 (11718748_at) / Fold change /veh C1QL1 (11718748_at) / RFU TMPRSS4 (11747572_a_at) / Fold change /veh TMPRSS4 (11747572_a_at) / RFU HAMP (11756126_x_at) / Fold change /veh HAMP (11756126_x_at) / RFU RNFT2 (11725882_a_at) / Fold change /veh RNFT2 (11725882_a_at) / RFU NR4A2 (11747474_a_at) / Fold change /veh NR4A2 (11747474_a_at) / RFU ABCC12 (11746883_a_at) / Fold change /veh ABCC12 (11746883_a_at) / RFU TMEM136 (11760407_x_at) / Fold change /veh TMEM136 (11760407_x_at) / RFU CLDN22 /// WWC2 (11732394_at) / Fold change /veh CLDN22 /// WWC2 (11732394_at) / RFU HLA-DPB1 (11760878_x_at) / Fold change /veh HLA-DPB1 (11760878_x_at) / RFU SPINT1 (11716480_a_at) / Fold change /veh SPINT1 (11716480_a_at) / RFU GAP43 (11754022_s_at) / Fold change /veh GAP43 (11754022_s_at) / RFU A4GNT (11735810_at) / Fold change /veh A4GNT (11735810_at) / RFU PRB3 (11715151_x_at) / Fold change /veh PRB3 (11715151_x_at) / RFU TUBB4B (11761932_at) / Fold change /veh TUBB4B (11761932_at) / RFU CAPN14 (11732068_a_at) / Fold change /veh CAPN14 (11732068_a_at) / RFU TMCC2 (11721928_a_at) / Fold change /veh TMCC2 (11721928_a_at) / RFU IRGQ (11745062_a_at) / Fold change /veh IRGQ (11745062_a_at) / RFU FAM174B (11720279_a_at) / Fold change /veh FAM174B (11720279_a_at) / RFU TMPRSS4 (11748680_a_at) / Fold change /veh TMPRSS4 (11748680_a_at) / RFU FAM212B (11763350_a_at) / Fold change /veh FAM212B (11763350_a_at) / RFU PLEKHG5 (11743358_a_at) / Fold change /veh PLEKHG5 (11743358_a_at) / RFU ZSCAN30 (11745921_a_at) / Fold change /veh ZSCAN30 (11745921_a_at) / RFU CMKLR1 (11741424_a_at) / Fold change /veh CMKLR1 (11741424_a_at) / RFU LOC101060620 /// MAPK8IP1 (11723275_at) / Fold change /veh LOC101060620 /// MAPK8IP1 (11723275_at) / RFU SPTSSB (11747773_x_at) / Fold change /veh SPTSSB (11747773_x_at) / RFU PRSS12 (11739890_at) / Fold change /veh PRSS12 (11739890_at) / RFU BIN1 (11741810_x_at) / Fold change /veh BIN1 (11741810_x_at) / RFU WNT11 (11732464_a_at) / Fold change /veh WNT11 (11732464_a_at) / RFU C10orf10 (11716521_a_at) / Fold change /veh C10orf10 (11716521_a_at) / RFU C5orf56 (11738089_at) / Fold change /veh C5orf56 (11738089_at) / RFU CYB561 (11721691_x_at) / Fold change /veh CYB561 (11721691_x_at) / RFU ANKRD19P (11752326_a_at) / Fold change /veh ANKRD19P (11752326_a_at) / RFU OR2T12 /// OR2T33 /// OR2T8 (11738714_s_at) / Fold change /veh OR2T12 /// OR2T33 /// OR2T8 (11738714_s_at) / RFU VCAN (11748164_a_at) / Fold change /veh VCAN (11748164_a_at) / RFU JSRP1 (11732532_at) / Fold change /veh JSRP1 (11732532_at) / RFU KRTAP10-11 (11738290_x_at) / Fold change /veh KRTAP10-11 (11738290_x_at) / RFU MYO3A (11730013_a_at) / Fold change /veh MYO3A (11730013_a_at) / RFU EBF3 (11725865_a_at) / Fold change /veh EBF3 (11725865_a_at) / RFU CAMK2N1 (11719241_x_at) / Fold change /veh CAMK2N1 (11719241_x_at) / RFU C5orf56 (11738088_a_at) / Fold change /veh C5orf56 (11738088_a_at) / RFU OLFML3 (11715873_a_at) / Fold change /veh OLFML3 (11715873_a_at) / RFU LOC100653217 /// NTM (11731650_a_at) / Fold change /veh LOC100653217 /// NTM (11731650_a_at) / RFU MAPK11 (11762145_a_at) / Fold change /veh MAPK11 (11762145_a_at) / RFU FIZ1 (11724087_x_at) / Fold change /veh FIZ1 (11724087_x_at) / RFU OASL (11726364_x_at) / Fold change /veh OASL (11726364_x_at) / RFU SOX15 (11748057_x_at) / Fold change /veh SOX15 (11748057_x_at) / RFU CD79A (11719716_a_at) / Fold change /veh CD79A (11719716_a_at) / RFU HIST1H1D (11736915_at) / Fold change /veh HIST1H1D (11736915_at) / RFU CASKIN2 (11723855_a_at) / Fold change /veh CASKIN2 (11723855_a_at) / RFU LOC730098 (11760151_x_at) / Fold change /veh LOC730098 (11760151_x_at) / RFU OR4N2 (11742367_at) / Fold change /veh OR4N2 (11742367_at) / RFU PRRT2 (11749266_a_at) / Fold change /veh PRRT2 (11749266_a_at) / RFU SNX32 (11753110_a_at) / Fold change /veh SNX32 (11753110_a_at) / RFU CDHR5 (11726645_a_at) / Fold change /veh CDHR5 (11726645_a_at) / RFU RCAN1 (11760418_a_at) / Fold change /veh RCAN1 (11760418_a_at) / RFU FAM167A (11723789_a_at) / Fold change /veh FAM167A (11723789_a_at) / RFU FAM26E (11764081_at) / Fold change /veh FAM26E (11764081_at) / RFU ISYNA1 (11749810_s_at) / Fold change /veh ISYNA1 (11749810_s_at) / RFU ACY1 (11761880_at) / Fold change /veh ACY1 (11761880_at) / RFU 11764098_at / Fold change /veh 11764098_at / RFU SAMD14 (11745864_x_at) / Fold change /veh SAMD14 (11745864_x_at) / RFU NPB (11741838_a_at) / Fold change /veh NPB (11741838_a_at) / RFU TMPRSS6 (11731388_a_at) / Fold change /veh TMPRSS6 (11731388_a_at) / RFU KRTAP10-2 (11738614_at) / Fold change /veh KRTAP10-2 (11738614_at) / RFU ARHGAP8 /// PRR5-ARHGAP8 (11727945_x_at) / Fold change /veh ARHGAP8 /// PRR5-ARHGAP8 (11727945_x_at) / RFU KRTAP5-7 /// NADSYN1 (11734609_at) / Fold change /veh KRTAP5-7 /// NADSYN1 (11734609_at) / RFU RASL12 (11751679_a_at) / Fold change /veh RASL12 (11751679_a_at) / RFU CDKN2B (11736163_a_at) / Fold change /veh CDKN2B (11736163_a_at) / RFU PRF1 (11729649_at) / Fold change /veh PRF1 (11729649_at) / RFU, ZNF638 /// ZNF638-IT1 / Fold change vs veh, ZNF638 /// ZNF638-IT1 / RFU, PANK3 / Fold change vs veh, PANK3 / RFU, SH3YL1 / Fold change vs veh, SH3YL1 / RFU, ZEB2 / Fold change vs veh, ZEB2 / RFU, NRIP1 / Fold change vs veh, NRIP1 / RFU, PTTG1IP / Fold change vs veh, PTTG1IP / RFU, CAPN2 / Fold change vs veh, CAPN2 / RFU, MED14 / Fold change vs veh, MED14 / RFU, SNORA58 / Fold change vs veh, SNORA58 / RFU, C1orf63 / Fold change vs veh, C1orf63 / RFU, LRRFIP1 / Fold change vs veh, LRRFIP1 / RFU, NDUFAF7 / Fold change vs veh, NDUFAF7 / RFU, SLC12A2 / Fold change vs veh, SLC12A2 / RFU, IBTK / Fold change vs veh, IBTK / RFU, ESF1 / Fold change vs veh, ESF1 / Fold change vs veh, TMEM50B / RFU, TAOK1 / Fold change vs veh, TAOK1 / RFU, ACBD3 / Fold change vs veh, ACBD3 / RFU, TMA16 / Fold change vs veh, TMA16 / RFU, RWDD3 / Fold change vs veh, RWDD3 / RFU, BCAT1 / Fold change vs veh, BCAT1 / RFU, EDEM3 / Fold change vs veh, EDEM3 / RFU, TMEM33 / Fold change vs veh, TMEM33 / RFU, WDR75 / Fold change vs veh, WDR75 / RFU, AHCTF1 / Fold change vs veh, AHCTF1 / RFU, TFRC / Fold change vs veh, TFRC / RFU, ZDHHC17 / Fold change vs veh, ZDHHC17 / RFU, NOM1 / Fold change vs veh, NOM1 / RFU, ARL8B / Fold change vs veh, ARL8B / RFU, ZBTB11 / Fold change vs veh, ZBTB11 / RFU, TAMM41 / Fold change vs veh, TAMM41 / RFU, KIAA1704 /// LOC100996395 / Fold change vs veh, KIAA1704 /// LOC100996395 / RFU, ING1 / Fold change vs veh, ING1 / RFU, TRMT61B / Fold change vs veh, TRMT61B / RFU, FUBP3 / Fold change vs veh, FUBP3 / RFU, TP53 / Fold change vs veh, TP53 / RFU, TNKS2 / Fold change vs veh, TNKS2 / RFU, ZFP14 / Fold change vs veh, ZFP14 / RFU, ACTR2 / Fold change vs veh, ACTR2 / RFU, PPP3R1 / Fold change vs veh, PPP3R1 / RFU, PIK3R1 / Fold change vs veh, PIK3R1 / RFU, HNRNPA1 / Fold change vs veh, HNRNPA1 / RFU, RNF170 / Fold change vs veh, RNF170 / RFU, ZNF28 / Fold change vs veh, ZNF28 / RFU, RNGTT / Fold change vs veh, RNGTT / RFU, OGT / Fold change vs veh, OGT / RFU, BRD1 / Fold change vs veh, BRD1 / RFU, MARS / Fold change vs veh, MARS / RFU, ZNF655 / Fold change vs veh, ZNF655 / RFU, FAHD1 / Fold change vs veh, FAHD1 / RFU, BDP1 / Fold change vs veh, BDP1 / RFU, LRRCC1 / Fold change vs veh, LRRCC1 / RFU, ARID1A / Fold change vs veh, ARID1A / RFU, ZNF146 / Fold change vs veh, ZNF146 / RFU, ZNF330 / Fold change vs veh, ZNF330 / RFU, GPN3 / Fold change vs veh, GPN3 / RFU, C9orf123 / Fold change vs veh, C9orf123 / RFU, N4BP2L2 / Fold change vs veh, N4BP2L2 / RFU, ARFIP1 / Fold change vs veh, ARFIP1 / RFU, FAM179B / Fold change vs veh, FAM179B / RFU, BCL10 / Fold change vs veh, BCL10 / RFU, UHRF1BP1L / Fold change vs veh, UHRF1BP1L / RFU, BET1 / Fold change vs veh, BET1 / RFU, CNOT2 / Fold change vs veh, CNOT2 / RFU, ZNF268 / Fold change vs veh, ZNF268 / Fold change vs veh, ZNF507 / RFU, DGCR2 / Fold change vs veh, DGCR2 / RFU, WDSUB1 / Fold change vs veh, WDSUB1 / Fold change vs veh, HSP90B1 /// MIR3652 / RFU, ADSS / Fold change vs veh, ADSS / RFU, GK / Fold change vs veh, GK / RFU, ZNF148 / Fold change vs veh, ZNF148 / RFU, TAF9 / Fold change vs veh, TAF9 / RFU, SLC1A5 / Fold change vs veh, SLC1A5 / RFU, SLMO2 / Fold change vs veh, SLMO2 / RFU, ABCC4 / Fold change vs veh, ABCC4 / RFU, LOC101060439 /// RAP1B / Fold change vs veh, LOC101060439 /// RAP1B / RFU, RFX7 / Fold change vs veh, RFX7 / RFU, GTPBP10 / Fold change vs veh, GTPBP10 / RFU, CNEP1R1 / Fold change vs veh, CNEP1R1 / RFU, BIVM-ERCC5 /// ERCC5 / Fold change vs veh, BIVM-ERCC5 /// ERCC5 / RFU, ILF3 / Fold change vs veh, ILF3 / RFU 11762660_at / Fold change /veh 11762660_at / RFU VCAN (11757783_s_at) / Fold change /veh VCAN (11757783_s_at) / RFU DDX43 (11728927_at) / Fold change /veh DDX43 (11728927_at) / RFU KRT8 (11758188_x_at) / Fold change /veh KRT8 (11758188_x_at) / RFU NKD1 (11759106_at) / Fold change /veh NKD1 (11759106_at) / RFU SRD5A1 (11742802_a_at) / Fold change /veh SRD5A1 (11742802_a_at) / RFU TPSAB1 /// TPSB2 (11721975_s_at) / Fold change /veh TPSAB1 /// TPSB2 (11721975_s_at) / RFU GSTM3 (11746129_a_at) / Fold change /veh GSTM3 (11746129_a_at) / RFU IL23R (11737362_x_at) / Fold change /veh IL23R (11737362_x_at) / RFU TMEM51 (11727254_a_at) / Fold change /veh TMEM51 (11727254_a_at) / RFU PIWIL2 (11732686_x_at) / Fold change /veh PIWIL2 (11732686_x_at) / RFU ORM1 (11744905_x_at) / Fold change /veh ORM1 (11744905_x_at) / RFU CCDC152 (11743942_at) / Fold change /veh CCDC152 (11743942_at) / RFU ECM1 (11717891_a_at) / Fold change /veh ECM1 (11717891_a_at) / RFU IL23R (11748794_a_at) / Fold change /veh IL23R (11748794_a_at) / RFU TNFAIP8L3 (11732012_x_at) / Fold change /veh TNFAIP8L3 (11732012_x_at) / RFU MBOAT4 (11741988_at) / Fold change /veh MBOAT4 (11741988_at) / RFU 11764193_at / Fold change /veh 11764193_at / RFU TMEM53 (11763286_at) / Fold change /veh TMEM53 (11763286_at) / RFU MAGEB2 (11727129_at) / Fold change /veh MAGEB2 (11727129_at) / RFU TMEM200A (11744735_a_at) / Fold change /veh TMEM200A (11744735_a_at) / RFU CCDC152 (11751479_a_at) / Fold change /veh CCDC152 (11751479_a_at) / RFU FAM211A (11726209_a_at) / Fold change /veh FAM211A (11726209_a_at) / RFU RGS16 (11746705_a_at) / Fold change /veh RGS16 (11746705_a_at) / RFU VCAN (11755009_s_at) / Fold change /veh VCAN (11755009_s_at) / RFU RHOB (11743442_s_at) / Fold change /veh RHOB (11743442_s_at) / RFU RGS16 (11720943_a_at) / Fold change /veh RGS16 (11720943_a_at) / RFU RGS16 (11720944_at) / Fold change /veh RGS16 (11720944_at) / RFU, VPS4B / Fold change vs veh, VPS4B / RFU, CREB1 / Fold change vs veh, CREB1 / RFU, DNAJC13 / Fold change vs veh, DNAJC13 / RFU, GNAQ / Fold change vs veh, GNAQ / RFU, CDK5R1 / Fold change vs veh, CDK5R1 / RFU, ZRANB3 / Fold change vs veh, ZRANB3 / RFU, CUL4A / Fold change vs veh, CUL4A / RFU, CCNY / Fold change vs veh, CCNY / RFU, UFL1 / Fold change vs veh, UFL1 / RFU, COG3 / Fold change vs veh, COG3 / RFU, DIAPH2 / Fold change vs veh, DIAPH2 / RFU, SKA2 / Fold change vs veh, SKA2 / RFU, AFF3 / Fold change vs veh, AFF3 / RFU, LMF1 / Fold change vs veh, LMF1 / RFU, IPO11 / Fold change vs veh, IPO11 / RFU, DFFB / Fold change vs veh, DFFB / RFU, FOXP1 / Fold change vs veh, FOXP1 / RFU, CARD8 / Fold change vs veh, CARD8 / RFU, STRN3 / Fold change vs veh, STRN3 / RFU, ADK / Fold change vs veh, ADK / RFU, RASSF2 / Fold change vs veh, RASSF2 / RFU, WIPF1 / Fold change vs veh, WIPF1 / RFU, LARP1B / Fold change vs veh, LARP1B / RFU, RASA1 / Fold change vs veh, RASA1 / RFU, RB1 / Fold change vs veh, RB1 / RFU, PPFIA1 / Fold change vs veh, PPFIA1 / RFU, MAT2A / Fold change vs veh, MAT2A / RFU, CCT5 / Fold change vs veh, CCT5 / RFU, WDR92 / Fold change vs veh, WDR92 / RFU, CUX1 / Fold change vs veh, CUX1 / RFU, TTC7A / Fold change vs veh, TTC7A / RFU, TMEM135 / Fold change vs veh, TMEM135 / RFU, DEPTOR / Fold change vs veh, DEPTOR / RFU, CPM / Fold change vs veh, CPM / RFU, DNAJB6 / Fold change vs veh, DNAJB6 / RFU, CACNA2D3 / Fold change vs veh, CACNA2D3 / RFU, DTX4 / Fold change vs veh, DTX4 / RFU, TFCP2 / Fold change vs veh, TFCP2 / RFU, GMCL1 /// GMCL1P1 / Fold change vs veh, GMCL1 /// GMCL1P1 / RFU, AEBP2 / Fold change vs veh, AEBP2 / RFU, SNHG1 /// SNORD22 /// SNORD25 /// SNORD26 /// SNORD27 /// SNORD28 /// SNORD29 /// SNORD31 / Fold change vs veh, SNHG1 /// SNORD22 /// SNORD25 /// SNORD26 /// SNORD27 /// SNORD28 /// SNORD29 /// SNORD31 / Fold change (Aza/veh), C12orf56 (ProbeSet 11735607_a_at) / Fold change (ACY-1035/veh), C12orf56 (ProbeSet 11735607_a_at) / Fold change (Aza/veh), FGFR1OP (ProbeSet 11751329_s_at) / Fold change (ACY-1035/veh), FGFR1OP (ProbeSet 11751329_s_at) / Fold change (Aza/veh), VPS36 (ProbeSet 11739960_a_at) / Fold change (ACY-1035/veh), VPS36 (ProbeSet 11739960_a_at) / RFU SYPL1 (11715823_x_at) / Fold change /veh SYPL1 (11715823_x_at) / RFU IGFBP7 (11715501_s_at) / Fold change /veh IGFBP7 (11715501_s_at) / RFU REEP3 (11722064_at) / Fold change /veh REEP3 (11722064_at) / RFU IGLL1 (11728026_x_at) / Fold change /veh IGLL1 (11728026_x_at): dose or concentration left out as unconfirmed
Conditions: ProbeSet 11720269_a_at; LIST B

Compound: Nc1ccc(-c2cccs2)cc1NC(=O)c1ccc2c(c1)cc(C1CC1)n2CCN1CCOCC1 [ACY-1035]
- Fold change vs veh, IBTK: 0.93
